{"source": "the kinase profiling compilation of Christmann-Franck et al. (2016)", "experiment_in_all_cases": "KINOMEscan competition binding", "details_in_all_cases": "compound 0.5 µM", "key": {"AURKC (human)": {"target": "AURKC (human) (UniProt Q9UQB9)"}, "CaMK1 (human)": {"target": "CaMK1 (human) (UniProt Q14012)"}, "EPHA3 (human)": {"target": "EPHA3 (human) (UniProt P29320)"}, "[1]": {"system": "PIK3CA (human), P42336 [M1043I]"}, "[2]": {"system": "EIF2AK4 KD2 (human), Q9P2K8 [S808G]"}, "ROCK1 (human)": {"target": "ROCK1 (human) (UniProt Q13464)", "sequence (Q13464 whole entry, looked up)": "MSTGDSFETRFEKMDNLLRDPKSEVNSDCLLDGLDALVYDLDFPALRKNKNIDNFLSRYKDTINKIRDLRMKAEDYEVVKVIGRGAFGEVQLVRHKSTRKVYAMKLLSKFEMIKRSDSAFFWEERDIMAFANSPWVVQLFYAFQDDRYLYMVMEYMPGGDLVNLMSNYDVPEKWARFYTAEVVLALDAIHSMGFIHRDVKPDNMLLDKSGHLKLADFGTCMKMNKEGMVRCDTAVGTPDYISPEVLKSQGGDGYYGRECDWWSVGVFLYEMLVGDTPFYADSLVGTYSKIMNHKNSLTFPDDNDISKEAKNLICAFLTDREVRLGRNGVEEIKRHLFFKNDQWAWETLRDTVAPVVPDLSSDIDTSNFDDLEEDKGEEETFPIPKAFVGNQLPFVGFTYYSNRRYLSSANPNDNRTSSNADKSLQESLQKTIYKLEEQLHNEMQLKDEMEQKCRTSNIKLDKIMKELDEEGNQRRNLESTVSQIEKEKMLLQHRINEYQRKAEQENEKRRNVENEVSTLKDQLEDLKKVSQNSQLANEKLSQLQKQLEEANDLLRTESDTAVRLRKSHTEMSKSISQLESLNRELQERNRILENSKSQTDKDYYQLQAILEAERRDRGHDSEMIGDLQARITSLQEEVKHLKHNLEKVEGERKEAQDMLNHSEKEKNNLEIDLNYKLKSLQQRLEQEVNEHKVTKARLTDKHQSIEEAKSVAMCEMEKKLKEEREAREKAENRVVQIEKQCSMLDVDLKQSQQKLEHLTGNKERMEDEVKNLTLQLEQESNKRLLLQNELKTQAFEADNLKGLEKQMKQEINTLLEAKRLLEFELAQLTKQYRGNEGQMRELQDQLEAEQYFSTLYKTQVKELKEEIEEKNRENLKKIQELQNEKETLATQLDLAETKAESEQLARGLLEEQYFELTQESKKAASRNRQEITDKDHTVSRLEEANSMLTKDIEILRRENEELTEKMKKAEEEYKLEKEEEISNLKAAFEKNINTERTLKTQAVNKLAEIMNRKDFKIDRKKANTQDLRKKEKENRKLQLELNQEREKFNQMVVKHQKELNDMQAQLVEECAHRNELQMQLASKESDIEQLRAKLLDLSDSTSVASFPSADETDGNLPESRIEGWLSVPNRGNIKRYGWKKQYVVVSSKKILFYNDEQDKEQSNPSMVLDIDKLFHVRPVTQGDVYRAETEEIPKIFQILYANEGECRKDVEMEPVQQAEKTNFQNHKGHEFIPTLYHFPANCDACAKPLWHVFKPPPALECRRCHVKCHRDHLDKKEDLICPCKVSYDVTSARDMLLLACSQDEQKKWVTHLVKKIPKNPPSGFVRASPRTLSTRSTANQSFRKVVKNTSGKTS"}, "EPHA7 (human)": {"target": "EPHA7 (human) (UniProt Q15375)"}, "CSNK1G2 (human)": {"target": "CSNK1G2 (human) (UniProt P78368)"}, "CDC42BPG (human)": {"target": "CDC42BPG (human) (UniProt Q6DT37)"}, "STK32A (human)": {"target": "STK32A (human) (UniProt Q8WU08)"}, "PRKACA (human)": {"target": "PRKACA (human) (UniProt P17612)"}, "[3]": {"target": "JAK3 JH1 catalytic (human) (UniProt P52333)"}, "[4]": {"system": "FLT3 (human), P36888 [ITD]"}, "FRK (human)": {"target": "FRK (human) (UniProt P42685)", "sequence (P42685 whole entry, looked up)": "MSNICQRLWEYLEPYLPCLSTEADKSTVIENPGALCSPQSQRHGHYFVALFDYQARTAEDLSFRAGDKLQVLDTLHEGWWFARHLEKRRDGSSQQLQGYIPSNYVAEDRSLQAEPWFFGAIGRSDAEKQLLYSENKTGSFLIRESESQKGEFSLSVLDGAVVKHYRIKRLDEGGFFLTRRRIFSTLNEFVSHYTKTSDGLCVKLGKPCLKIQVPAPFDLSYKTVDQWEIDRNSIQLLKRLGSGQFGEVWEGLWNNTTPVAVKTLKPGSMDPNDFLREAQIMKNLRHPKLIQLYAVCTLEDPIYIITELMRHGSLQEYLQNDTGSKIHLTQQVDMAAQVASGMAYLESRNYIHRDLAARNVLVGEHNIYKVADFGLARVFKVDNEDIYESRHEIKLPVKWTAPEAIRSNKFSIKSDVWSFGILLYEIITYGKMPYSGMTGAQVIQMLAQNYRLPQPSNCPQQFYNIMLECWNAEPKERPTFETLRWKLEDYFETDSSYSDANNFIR"}, "STK39 (human)": {"target": "STK39 (human) (UniProt Q9UEW8)"}, "GRK1 (human)": {"target": "GRK1 (human) (UniProt Q15835)"}, "TGFBR1 (human)": {"target": "TGFBR1 (human) (UniProt P36897)", "sequence (P36897 whole entry, looked up)": "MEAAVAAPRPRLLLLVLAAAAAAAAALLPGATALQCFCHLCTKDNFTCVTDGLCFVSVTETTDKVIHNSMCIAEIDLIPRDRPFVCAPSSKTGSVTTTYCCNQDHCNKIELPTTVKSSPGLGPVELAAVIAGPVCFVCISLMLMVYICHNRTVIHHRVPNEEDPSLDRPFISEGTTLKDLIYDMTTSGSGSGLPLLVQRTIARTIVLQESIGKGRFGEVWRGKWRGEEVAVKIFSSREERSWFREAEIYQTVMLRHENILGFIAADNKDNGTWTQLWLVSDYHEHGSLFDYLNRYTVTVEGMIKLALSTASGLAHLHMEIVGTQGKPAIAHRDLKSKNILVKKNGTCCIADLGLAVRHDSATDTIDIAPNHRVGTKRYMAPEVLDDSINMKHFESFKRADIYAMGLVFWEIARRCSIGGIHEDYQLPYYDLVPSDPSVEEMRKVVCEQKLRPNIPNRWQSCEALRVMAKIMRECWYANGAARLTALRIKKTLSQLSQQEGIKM"}, "DYRK1B (human)": {"target": "DYRK1B (human) (UniProt Q9Y463)"}, "STK38L (human)": {"target": "STK38L (human) (UniProt Q9Y2H1)"}, "MAP3K1 (human)": {"target": "MAP3K1 (human) (UniProt Q13233)"}, "MAP3K11 (human)": {"target": "MAP3K11 (human) (UniProt Q16584)"}, "CLK1 (human)": {"target": "CLK1 (human) (UniProt P49759)", "sequence (P49759 whole entry, looked up)": "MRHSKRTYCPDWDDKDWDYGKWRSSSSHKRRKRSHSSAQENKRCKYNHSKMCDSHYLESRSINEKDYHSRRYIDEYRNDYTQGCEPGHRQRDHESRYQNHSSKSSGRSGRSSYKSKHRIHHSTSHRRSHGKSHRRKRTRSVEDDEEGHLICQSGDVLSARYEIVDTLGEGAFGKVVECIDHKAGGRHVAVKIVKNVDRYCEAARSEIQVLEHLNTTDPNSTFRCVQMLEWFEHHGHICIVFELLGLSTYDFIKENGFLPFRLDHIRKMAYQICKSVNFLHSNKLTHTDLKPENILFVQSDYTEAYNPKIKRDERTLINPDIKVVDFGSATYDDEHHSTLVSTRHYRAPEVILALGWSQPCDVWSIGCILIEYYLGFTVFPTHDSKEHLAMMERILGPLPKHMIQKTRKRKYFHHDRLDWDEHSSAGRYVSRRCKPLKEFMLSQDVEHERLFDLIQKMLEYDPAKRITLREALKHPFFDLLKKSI"}, "CAMKK1 (human)": {"target": "CAMKK1 (human) (UniProt Q8N5S9)"}, "LYN (human)": {"target": "LYN (human) (UniProt P07948)"}, "[5]": {"system": "PIK3CA (human), P42336 [E545K]"}, "ERBB4 (human)": {"target": "ERBB4 (human) (UniProt Q15303)", "sequence (Q15303 whole entry, looked up)": "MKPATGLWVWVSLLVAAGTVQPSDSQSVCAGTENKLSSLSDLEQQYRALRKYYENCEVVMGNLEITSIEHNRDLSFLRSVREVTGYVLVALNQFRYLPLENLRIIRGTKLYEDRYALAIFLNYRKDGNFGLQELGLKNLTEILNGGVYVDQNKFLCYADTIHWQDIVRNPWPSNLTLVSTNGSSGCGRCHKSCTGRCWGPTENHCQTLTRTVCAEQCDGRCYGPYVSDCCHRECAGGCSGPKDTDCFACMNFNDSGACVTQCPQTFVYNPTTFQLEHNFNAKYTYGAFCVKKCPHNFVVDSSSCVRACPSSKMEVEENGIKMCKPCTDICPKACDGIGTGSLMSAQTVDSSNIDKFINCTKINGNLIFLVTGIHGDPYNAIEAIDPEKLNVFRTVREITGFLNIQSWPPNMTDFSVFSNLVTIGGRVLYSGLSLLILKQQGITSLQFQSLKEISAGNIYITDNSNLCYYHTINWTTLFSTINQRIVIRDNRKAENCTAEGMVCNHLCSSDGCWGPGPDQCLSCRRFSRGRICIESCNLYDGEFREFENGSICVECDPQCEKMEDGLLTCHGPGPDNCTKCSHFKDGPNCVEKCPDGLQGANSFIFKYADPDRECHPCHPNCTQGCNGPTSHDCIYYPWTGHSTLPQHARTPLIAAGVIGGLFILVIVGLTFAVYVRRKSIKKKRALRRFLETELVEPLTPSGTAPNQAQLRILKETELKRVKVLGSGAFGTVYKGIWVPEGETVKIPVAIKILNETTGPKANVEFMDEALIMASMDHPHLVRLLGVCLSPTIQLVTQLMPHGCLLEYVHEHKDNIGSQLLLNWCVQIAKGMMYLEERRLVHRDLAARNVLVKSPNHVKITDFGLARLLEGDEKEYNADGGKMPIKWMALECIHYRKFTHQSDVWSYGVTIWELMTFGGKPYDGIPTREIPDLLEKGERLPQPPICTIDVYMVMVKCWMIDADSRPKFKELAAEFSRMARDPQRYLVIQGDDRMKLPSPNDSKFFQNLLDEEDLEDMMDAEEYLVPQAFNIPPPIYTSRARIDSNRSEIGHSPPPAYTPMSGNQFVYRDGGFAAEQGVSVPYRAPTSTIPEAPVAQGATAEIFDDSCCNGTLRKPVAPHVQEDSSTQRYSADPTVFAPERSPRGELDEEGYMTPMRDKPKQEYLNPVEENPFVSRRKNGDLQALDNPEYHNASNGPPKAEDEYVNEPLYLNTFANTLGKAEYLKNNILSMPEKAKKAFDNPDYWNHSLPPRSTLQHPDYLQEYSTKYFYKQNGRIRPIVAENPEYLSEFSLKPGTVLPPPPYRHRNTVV"}, "SRPK2 (human)": {"target": "SRPK2 (human) (UniProt P78362)"}, "NTRK1 (human)": {"target": "NTRK1 (human) (UniProt P04629)"}, "NIM1 (human)": {"target": "NIM1 (human) (UniProt Q8IY84)", "sequence (Q8IY84 whole entry, looked up)": "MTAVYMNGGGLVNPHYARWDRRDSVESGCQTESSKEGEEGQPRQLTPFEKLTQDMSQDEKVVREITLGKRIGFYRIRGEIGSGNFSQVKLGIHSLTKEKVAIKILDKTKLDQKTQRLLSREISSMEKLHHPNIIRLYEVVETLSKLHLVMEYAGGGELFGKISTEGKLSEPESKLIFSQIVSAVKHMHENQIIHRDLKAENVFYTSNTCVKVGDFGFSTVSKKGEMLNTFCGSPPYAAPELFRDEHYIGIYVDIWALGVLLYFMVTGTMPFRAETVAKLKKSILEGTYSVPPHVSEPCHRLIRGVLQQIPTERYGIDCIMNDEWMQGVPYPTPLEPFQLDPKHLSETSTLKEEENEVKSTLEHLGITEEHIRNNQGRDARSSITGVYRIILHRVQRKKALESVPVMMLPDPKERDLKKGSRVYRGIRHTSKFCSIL"}, "EPHB4 (human)": {"target": "EPHB4 (human) (UniProt P54760)"}, "PIP4K2C (human)": {"target": "PIP4K2C (human) (UniProt Q8TBX8)"}, "GRK7 (human)": {"target": "GRK7 (human) (UniProt Q8WTQ7)"}, "CDKL1 (human)": {"target": "CDKL1 (human) (UniProt Q00532)"}, "PIP5K1C (human)": {"target": "PIP5K1C (human) (UniProt O60331)"}, "INSR (human)": {"target": "INSR (human) (UniProt P06213)"}, "STK38 (human)": {"target": "STK38 (human) (UniProt Q15208)"}, "ERN1 (human)": {"target": "ERN1 (human) (UniProt O75460)"}, "HIPK3 (human)": {"target": "HIPK3 (human) (UniProt Q9H422)"}, "PIK3CB (human)": {"target": "PIK3CB (human) (UniProt P42338)"}, "CSNK1A1 (human)": {"target": "CSNK1A1 (human) (UniProt P48729)", "sequence (P48729 whole entry, looked up)": "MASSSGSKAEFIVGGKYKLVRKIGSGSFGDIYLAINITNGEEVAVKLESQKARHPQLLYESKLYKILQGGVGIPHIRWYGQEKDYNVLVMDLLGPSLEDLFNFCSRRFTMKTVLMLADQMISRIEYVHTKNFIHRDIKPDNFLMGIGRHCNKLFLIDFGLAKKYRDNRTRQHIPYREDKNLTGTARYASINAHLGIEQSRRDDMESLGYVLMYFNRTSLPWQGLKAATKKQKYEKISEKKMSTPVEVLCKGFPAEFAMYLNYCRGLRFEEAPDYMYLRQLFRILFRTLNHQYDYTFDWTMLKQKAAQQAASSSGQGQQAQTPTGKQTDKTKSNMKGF"}, "EPHA6 (human)": {"target": "EPHA6 (human) (UniProt Q9UF33)"}}, "data": [{"smiles": "Cn1c2ccccc2c2c3c(c4c5ccccc5n(CCC#N)c4c21)CNC3=O", "values": [{"measurement": "kinase still bound, per cent of control", "setting": "AURKC (human)", "result": 8, "unit": "%"}, {"measurement": "kinase still bound, per cent of control", "setting": "CaMK1 (human)", "result": 76, "unit": "%"}, {"measurement": "kinase still bound, per cent of control", "setting": "EPHA3 (human)", "result": 53, "unit": "%"}, {"measurement": "kinase still bound, per cent of control", "setting": "[1]", "result": 93, "unit": "%"}, {"measurement": "kinase still bound, per cent of control", "setting": "[2]", "result": 77, "unit": "%"}, {"measurement": "kinase still bound, per cent of control", "setting": "ROCK1 (human)", "result": 22, "unit": "%"}, {"measurement": "kinase still bound, per cent of control", "setting": "EPHA7 (human)", "result": 81, "unit": "%"}, {"measurement": "kinase still bound, per cent of control", "setting": "CSNK1G2 (human)", "result": 94, "unit": "%"}, {"measurement": "kinase still bound, per cent of control", "setting": "CDC42BPG (human)", "result": 100, "unit": "%"}, {"measurement": "kinase still bound, per cent of control", "setting": "STK32A (human)", "result": 94, "unit": "%"}, {"measurement": "kinase still bound, per cent of control", "setting": "PRKACA (human)", "result": 100, "unit": "%"}, {"measurement": "kinase still bound, per cent of control", "setting": "[3]", "result": 0, "unit": "%"}, {"measurement": "kinase still bound, per cent of control", "setting": "[4]", "result": 0.2, "unit": "%"}, {"measurement": "kinase still bound, per cent of control", "setting": "FRK (human)", "result": 84, "unit": "%"}, {"measurement": "kinase still bound, per cent of control", "setting": "STK39 (human)", "result": 76, "unit": "%"}, {"measurement": "kinase still bound, per cent of control", "setting": "GRK1 (human)", "result": 15, "unit": "%"}, {"measurement": "kinase still bound, per cent of control", "setting": "TGFBR1 (human)", "result": 79, "unit": "%"}, {"measurement": "kinase still bound, per cent of control", "setting": "DYRK1B (human)", "result": 12, "unit": "%"}, {"measurement": "kinase still bound, per cent of control", "setting": "STK38L (human)", "result": 66, "unit": "%"}, {"measurement": "kinase still bound, per cent of control", "setting": "MAP3K1 (human)", "result": 100, "unit": "%"}, {"measurement": "kinase still bound, per cent of control", "setting": "MAP3K11 (human)", "result": 17, "unit": "%"}, {"measurement": "kinase still bound, per cent of control", "setting": "CLK1 (human)", "result": 16, "unit": "%"}, {"measurement": "kinase still bound, per cent of control", "setting": "CAMKK1 (human)", "result": 6.1, "unit": "%"}, {"measurement": "kinase still bound, per cent of control", "setting": "LYN (human)", "result": 100, "unit": "%"}, {"measurement": "kinase still bound, per cent of control", "setting": "[5]", "result": 100, "unit": "%"}, {"measurement": "kinase still bound, per cent of control", "setting": "ERBB4 (human)", "result": 82, "unit": "%"}, {"measurement": "kinase still bound, per cent of control", "setting": "SRPK2 (human)", "result": 9.2, "unit": "%"}, {"measurement": "kinase still bound, per cent of control", "setting": "NTRK1 (human)", "result": 0.1, "unit": "%"}, {"measurement": "kinase still bound, per cent of control", "setting": "NIM1 (human)", "result": 100, "unit": "%"}, {"measurement": "kinase still bound, per cent of control", "setting": "EPHB4 (human)", "result": 100, "unit": "%"}, {"measurement": "kinase still bound, per cent of control", "setting": "PIP4K2C (human)", "result": 75, "unit": "%"}, {"measurement": "kinase still bound, per cent of control", "setting": "GRK7 (human)", "result": 10, "unit": "%"}, {"measurement": "kinase still bound, per cent of control", "setting": "CDKL1 (human)", "result": 81, "unit": "%"}, {"measurement": "kinase still bound, per cent of control", "setting": "PIP5K1C (human)", "result": 100, "unit": "%"}, {"measurement": "kinase still bound, per cent of control", "setting": "INSR (human)", "result": 84, "unit": "%"}, {"measurement": "kinase still bound, per cent of control", "setting": "STK38 (human)", "result": 100, "unit": "%"}, {"measurement": "kinase still bound, per cent of control", "setting": "ERN1 (human)", "result": 43, "unit": "%"}, {"measurement": "kinase still bound, per cent of control", "setting": "HIPK3 (human)", "result": 12, "unit": "%"}, {"measurement": "kinase still bound, per cent of control", "setting": "PIK3CB (human)", "result": 88, "unit": "%"}, {"measurement": "kinase still bound, per cent of control", "setting": "CSNK1A1 (human)", "result": 100, "unit": "%"}, {"measurement": "kinase still bound, per cent of control", "setting": "EPHA6 (human)", "result": 86, "unit": "%"}]}]}
